The source of these data is paper PMC9668914, “Understanding VPAC receptor family peptide binding and selectivity” (Nature Communications, 2022).

This experiment concerns the target T1, Nluc-PAC1R (Homo sapiens, UniProt P41586).
T1 construct: A construct containing N-terminal NLuc immediately after the native signal peptide of PAC1R was also generated in pcDNA3.1; expressed in transfected cells; host or cells: COS-7 (transient, PEI; whole cells at 4 °C)
T1 sequence (P41586 21-468): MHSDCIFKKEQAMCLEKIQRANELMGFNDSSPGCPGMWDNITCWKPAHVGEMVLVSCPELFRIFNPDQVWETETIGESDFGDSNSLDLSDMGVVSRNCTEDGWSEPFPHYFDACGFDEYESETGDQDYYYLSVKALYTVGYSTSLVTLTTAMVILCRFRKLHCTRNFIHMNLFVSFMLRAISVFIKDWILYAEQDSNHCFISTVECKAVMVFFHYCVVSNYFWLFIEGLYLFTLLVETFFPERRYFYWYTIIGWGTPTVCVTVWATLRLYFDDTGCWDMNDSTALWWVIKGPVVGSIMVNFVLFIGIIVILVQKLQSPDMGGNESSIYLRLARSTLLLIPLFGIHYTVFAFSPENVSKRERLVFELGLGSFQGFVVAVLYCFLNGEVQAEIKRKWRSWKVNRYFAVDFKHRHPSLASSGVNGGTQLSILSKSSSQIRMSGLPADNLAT
In words: NanoBRET competition binding, AF568-PACAP27 probe (Fig. 5c). The settings on record: COS-7, 30 nM AF568-PACAP27, 4 °C, read-out: pIC50, PAC1R competition binding (converted). An excerpt: An HA signal peptide was inserted in place of the native signal peptide of the receptors and a FLAG epitope was incorporated into the receptor N-terminus immediately after the signal peptide. A His tag was fused to C-terminus of the receptor. 3C protease cleavage sites were inserted between both the FLAG and His tags and the receptor. […] The following PAC1R and VPAC1R mutants were also generated using Quikchange mutagenesis: PAC1R C25A, PAC1R C219A, PAC1R C25A/C219A, VPAC1R C37A and VPAC1R C208A. For all PAC1R constructs, we used the PAC1R null (PAC1n) splice variant. A construct containing N-terminal NLuc immediately after the native signal peptide of PAC1R was also generated in pcDNA3.1.
Therefore, the lysine residue at position 21 was replaced with a cysteine residue (^21C) for the facile conjugation of fluorophore via thiol-maleimide click reaction. The resulting target peptide ^21C-PACAP27 (Mutant fragment) with amidated C-terminus was synthesized by standard Fmoc-solid phase peptide synthesis method[43] and purified by Reversed-phase high-performance liquid chromatography (RP-HPLC). […] of Alexa Fluor™ 568F was purchased from ThermoFisher Scientific (Catalog number: A20003). The thiol-maleimide conjugation reaction was carried out by our published protocol. […] The molecular weight of the probe was confirmed by Matrix-Assisted Laser Desorption/Ionization Time-of-Flight Mass Spectrometry (MALDI-TOF MS).
COS-7 cells were plated in 10 cm dishes at approximately 1 million cells/dish. Cells were transfected 24 h later, using 3 μg of Nluc-PAC1R DNA using the method described above and then seeded at a density of 15,000 cells per well in white-bottom 96-well culturplates 24 h prior to assay. On the day of the assay, cell culture media was replaced with BRET buffer (0.1% ovalbumin, 10 mM HEPES, 1x HBSS, pH 7.45) and incubated at 4 °C for two hours. […] After 1.5 h, furimazine (10 μM final concentration) was added to each well and the plate incubated for a further 30 min in the dark at 4 °C before reading. Filtered light emissions were measured at 460±40 nm (donor channel) and at 610-LP nm (long pass) (acceptor channel) using a PHERAstar plate reader (BMG Labtech). The raw NanoBRET ratio was calculated by dividing the luminescence from the acceptor channel by the donor channel. Data were expressed as % AF568-PACAP27 BRET signal in the absence of competing ligand.
The pharmacological data in figures and tables are reported as mean + standard error of the mean (SEM) with the number of biological replicates indicated in the figure and table legends where “n” represents the number of biological replicates performed. Concentration-response data were analyzed in GraphPad Prism version 9.4.0 using a three-parameter logistic curve to derive pEC50 values for the cyclic AMP accumulation. Competition binding data were analyzed in GraphPad Prism using the one site—Fit log IC50 model to derive pIC50 values. For the cysteine mutagenesis data, comparisons of multiple different groups were performed using one-way analysis of variance (ANOVA), followed by Dunnett’s post-hoc test with the control group being the WT receptor, with significance accepted at p < 0.05. For the chimeric peptide data, comparisons of multiple different groups were performed using one-way ANOVA, followed by Tukey’s post-hoc test, with significance accepted at p < 0.05.
A general note: BRET reads energy transfer from a luciferase to a nearby fluorophore.

Like-named read-outs stand apart in the source and are kept apart here. No end group written: not given here.

For “HSDGVFTDNYTRLRKQMAVKKYLNSILN-NH2 [Gly4 VIP]”, the IC50 by setting is: (replicate n=1) 7.55 µM; (replicate n=2) 5.5 µM; (replicate n=3) 7.11 µM; (replicate n=4) 3.4 µM; (replicate n=5) 1.14 µM.
As to `CC[C@H](C)[C@H](NC(=O)[C@H](C)NC(=O)[C@H](CC(=O)O)NC(=O)[C@H](CO)NC(=O)[C@@H](N)Cc1cnc[nH]1)C(=O)N[C@@H](Cc1ccccc1)C(=O)N[C@H](C(=O)N[C@@H](CC(=O)O)C(=O)N[C@@H](CO)C(=O)N[C@@H](Cc1ccc(O)cc1)C(=O)N[C@@H](CO)C(=O)N[C@@H](CCCNC(=N)N)C(=O)N[C@@H](Cc1ccc(O)cc1)C(=O)N[C@@H](CCCNC(=N)N)C(=O)N[C@@H](CCCCN)C(=O)N[C@@H](CCC(N)=O)C(=O)N[C@@H](CCSC)C(=O)N[C@@H](C)C(=O)N[C@H](C(=O)N[C@@H](CCCCN)C(=O)N[C@@H](CCCCN)C(=O)N[C@@H](Cc1ccc(O)cc1)C(=O)N[C@@H](CC(C)C)C(=O)N[C@@H](C)C(=O)N[C@@H](C)C(=O)N[C@H](C(=O)N[C@@H](CC(C)C)C(N)=O)C(C)C)C(C)C)[C@@H](C)O` [Ala4 PACAP27], the IC50 by setting is: (replicate n=1) 0.695 µM; (replicate n=2) 1.97 µM; (replicate n=3) 0.546 µM; (replicate n=4) 0.918 µM; (replicate n=5) 2.86 µM.
